Key:
Type in all cases: in vivo
[1] = system: male SAMP8 mice; assay: Resident-intruder (RI) test in male SAMP8 mice (aggressive behavior)
Protocol: In this study, male SAMP8 animals were treated either with vehicle (n=5), 0.32 (n=8) or 0.96 (n=8) mg/kg/day of Compound 1 for 5 weeks from month 5 of age and then subjected to the RI test. Vehicle (1.8% 2-Hydroxypropyl-β-cyclodextrin, Sigma-Aldrich, Spain) or Compound 1 were administered in drinking water. SAMR1 mice treated with vehicle were included as a control (n=6). All drugs were administered via drinking water and diluted in vehicle. Drug concentration was calculated weekly in function of body weight and corrected in function of drinking water consumption.
The resident-intruder (RI) test was performed as follows: the test subject (resident) was maintained in its home cage without bedding changes for one week. […] The session (20 min) was video-recorded and social interaction (parameters tested: social interaction and rearings) and aggressive behavior (parameters tested: lateral threats, clinch attacks, keep-down behavior, and total attacks as the sum of all three aggressive behavior parameters measured) of the test subject were analyzed by an experimenter blind to the treatment.
(§1) Statistical analysis: SAMR1 and SAMP8 vehicle groups were compared by t-Test. Among the SAMP8 groups, different treatments were compared by oneway-ANOVA with Dunnet and SNK post-Hoc analysis.

[2] = system: female SAMP8 mice; assay: Three chamber test (TCT) in female SAMP8 mice; settings: 0.96 mg/kg/day in drinking water for 4 months
Source text: In this test, after adaptation to the thee-chamber arena, a mouse is released into the middle chamber and allowed to explore the other compartments. In the adjacent ‘mouse’ compartment a docile stimulus mouse is situated in a mesh-wire container, while in the other adjacent compartment a similar container is located without stimulus mouse (object compartment). The propensity to approach or avoid the compartment with the stimulus mouse provides a measure of social interaction behavior/sociability. Wild type mice prefer social interaction and spend more time in the mouse compartment in comparison to the object compartment.
In this study, 8-month old female SAMP8 mice were treated either with vehicle (n=9) or 0.96 mg/kg/day of Compound 1 (n=12) for 4 months and then subjected to the TCT. […] Drug concentration was calculated weekly in function of body weight and corrected in function of drinking water consumption.
The TCT was performed in a Plexiglas transparent box with three identical consecutive chambers (15×15×20 cm) with two identical small metallic cages placed in both lateral chambers. […] This habituation time was monitored to avoid animals showing preference for one of the chambers. […] The time spent in each chamber and the time of direct exploration of the novel mice was measured during a total observation time of 10 minutes. […]

[3] = system: male SAMP8 mice; assay: Elevated plus maze (EPM) test in male SAMP8 mice
Protocol: (§2) Animals (n=8/group) were treated from month 5 of age with vehicle, 0.32 or 0.96 mg/kg/day Compound 1, and by month 7 of treatment they were sequentially submitted to the OF and EPM test at one week intervals.
(§3) Vehicle (1.8% 2-Hydroxypropyl-(3-cyclodextrin, Sigma-Aldrich, Spain) or KDM1A inhibitor (Compound 1) were administered in drinking water. SAMR1 mice treated with vehicle were included as a control (n=8). All drugs were administered via drinking water and diluted in vehicle. Drug concentration was calculated weekly in function of body weight and corrected in function of drinking water consumption.
Elevated Plus Maze (EPM): The EPM consisted of four arms at right angles to each other connected to a central square and maintained elevated 50 cm above the floor. Two of the opposite arms had high walls (enclosed arms, 30×5×15 cm), whereas the other two were open arms (30×5×0 cm). The animal was placed facing a closed arm, and its movements were video-recorded for 5 min and analyzed by video-tracking using SMART® (v3.0, PanLab, SLU, Spain).
as §1

[4] = system: male SAMP8 mice; assay: Open field (OF) test in male SAMP8 mice; settings: 0.32 or 0.96 mg/kg/day in drinking water
Protocol: as §2, §3
Open Field (OF): A 50×50-cm white plastic arena with 25-cm-high walls was used to analyze spontaneous exploratory behavior. The floor of the apparatus was divided into 25 equal squares. The movements of each animal were video recorded during 5 min. Locomotor activity was analyzed by video-tracking over the captured images using SMART® (v3.0, PanLab, SLU, Spain).
as §1

[5] = system: isolated Sprague-Dawley male rats; assay: Elevated plus maze (EPM) test in the rat isolation rearing model; settings: 0.16 or 0.48 mg/kg/day in drinking water
Protocol: (§4) Right after the weaning (post natal day 21-23), 48 Sprague-Dawley male rats were divided in two groups: Control (Non Isolated; n=12), maintained 3-4 animals per cage; Isolated (n=36), 1 animal per cage. Starting on postnatal day (PND) 61, adult isolated male rats were treated with vehicle, Compound 1 at 0.16 mg/kg/day or Compound 1 at 0.48 mg/kg/day (n=12/group) for 5 weeks. Control (non-isolated) animals were treated with vehicle. The administration route was drinking water and the vehicle 1.8% 2-hydroxypropyl-β-cyclodextrin. Drug concentration was adjusted weekly by body weight and water consumption. During the last week of treatment, all animals were tested in the RI (PND94) to evaluate social behavior and, on a different day, in the EPM test (PND87-88) to evaluate anxiety behavior.
The elevated plus maze (EPM) test was perfomed following a similar protocol to that described for mice in Example 3 above, as follows: The EPM consisted of four arms at right angles to each other connected to a central square and maintained elevated 50 cm above the floor. Two of the opposite arms had high walls (enclosed arms, 46.5×12×42 cm), whereas the other two were open arms (46.5×12×0.3 cm). The animal was placed facing a closed arm, and its movements were video-recorded for 5 min and analyzed by video-tracking using SMART® (v2.5.21, PanLab, SLU, Spain). […]

[6] = system: isolated Sprague-Dawley male rats; assay: Resident-intruder (RI) test in the rat isolation rearing model (social withdrawal)
Source text: In this model, rats are isolated after weaning on postnatal day 21 (PND21) and deprived of the normal environment that preconditions their social behavior. Isolation in this phase of the development of the rat may lead to behavior alterations, particularly a lack of interest for social interactions, which can be used as a model for human social withdrawal.
as §4
The resident-intruder (RI) test was performed following a similar protocol to that described for mice in Example 3 above, as follows: Briefly, the test subject (resident) was maintained in its home cage without bedding changes for one week. […] The session was video-recorded during 15 min, and social interaction (parameters measured: active and passive social interaction, avoidance and time without social interaction) and aggressive behavior of the test subject were analyzed by an experimenter blind to the treatment.
Statistical analysis: Non Isolated and Isolated vehicle groups were compared by t-Test. Among the Isolated groups, different drug treatments were compared by oneway-ANOVA with Dunnet and SNK post-Hoc analysis.

## Nc1nnc(CN[C@@H]2C[C@H]2c2ccc(OCc3ccccc3)cc2)o1 [Compound 1, 5-((((1R,2S)-2-(4-(benzyloxy)phenyl)cyclopropyl)amino)methyl)-1,3,4-oxadiazol-2-amine]
[1]; male SAMP8 mice, 0.32 or 0.96 mg/kg/day in drinking water for 5 weeks, vs vehicle-treated SAMR1, FIG. 1
  number of total attacks: lowered the number of attacks in SAMP8 mice to SAMR1 levels
[1]; male SAMP8 mice, 0.32 or 0.96 mg/kg/day in drinking water for 5 weeks, vs vehicle-treated SAMR1, FIG. 2
  number of clinch attacks: lowered the number of attacks in SAMP8 mice to SAMR1 levels
[1]; mice, 0.32 or 0.96 mg/kg/day in drinking water
  tolerability of doses on long-term treatment: well-tolerated
[2]; vs SAMR1, FIG. 5
  preference for the socialization chamber (mice chamber) over the Object chamber: restored
[2]; vs SAMR1, FIG. 6
  time spent exploring a novel mouse: restored
[3]; conclusion from OF and EPM tests in SAMP8 mice
  anxiolytic or sedative activity: did not have anxiolytic or sedative activity
[3]; male SAMP8 mice, 0.32 or 0.96 mg/kg/day in drinking water
  time in the open arms of the EPM: not significantly modified
[4]
  locomotor activity: nor did treatment with Compound 1 significantly affect locomotor activity
[5]
  effect on anxiety or locomotor activity: did not produce any significant effect
[6]; isolated rats, 0.16 or 0.48 mg/kg/day in drinking water for 5 weeks, vs non-isolated rats, FIG. 4
  number of evitations: restored to normality
[6]; isolated rats, 0.16 or 0.48 mg/kg/day in drinking water for 5 weeks, FIG. 3
  time without social interaction: dose dependently reduced
[6]; rats, 0.16 or 0.48 mg/kg/day in drinking water
  tolerability of doses on long-term treatment: well-tolerated

Source: patent US20200323828A1, “METHODS OF TREATING BEHAVIOR ALTERATIONS” (Oryzon Genomics, S.A., priority 2017, published 2020)
